Results from patent US9511019B2, “Pharmaceutical compositions for treating IBD” (NORDIC PHARMA, priority 2009, dated 2016).

Tested on: TNBS colitis
Experiment: TNBS colitis in mice, macroscopic lesions by Wallace criteria
Assay type: in vivo, C57b16 mice
Conditions: for Wallace score (macroscopic lesions, scale 0 to 10): TNBS colitic mice, daily intrarectal administration from 3 days before to 4 days after induction, 5-ASA 0.5 mg, PMSB 2.34 mg/kg/day, untreated control 3.4; for action percentage in comparison to the Wallace score of untreated control: Wallace score 3.4 = 0% action, score 0 = 100% action
Experimental: Induction of TNBS Colitis and Evaluation of Macroscopic Lesions in the Colitis after Administration of 5-ASA, PMSB, and Synergistic Combination of 5-ASA and PMSB.
Animal experiments were performed in accredited establishments according to governmental guidelines.
Colitis induction was conducted on C57b16 mice aged of 6 weeks old. They were anesthetized for 90-120 minutes before they received intrarectal administration of TNBS (trinitrobenzene sulphonic acid) (40 μl, 150 mg/kg) dissolved in a 1:1 mixture of 0.9% NaCl with 100% ethanol. Control mice received a 1:1 mixture of 0.9% NaCl with 100% ethanol or a saline solution using the same technique. Animals were sacrificed 4 days after TNBS administration. The anti-inflammatory effect of 5-ASA and steroid was evaluated by daily administration of these compounds by intrarectal route in a final volume of 50 μl, starting 3 days before the colitis induction and during all the experiment (4 days after colitis induction). Dosage amount of 5-ASA was 0.5 mg (50 μl of 1 g/100 ml stock), 65 mM and the dosage amount of PMSB was 2.34 mg/kg/day.
The macroscopic assessments of colitis were performed blindly by two investigators. The colon of each mouse was examined under a dissecting microscope (magnification, ×5), to evaluate the macroscopic lesions according to the Wallace criteria. The score rates macroscopic lesions on a scale of from 0 to 10 based on the features reflecting inflammation, such as hyperaemia, thickening of the bowel, and extent of ulceration. The Wallace scale is defined as follows. A score of 0 represents an absence of inflammation, a score of 1, a hyperaemia without ulcerations, a score of 2 a hyperaemia with a thickening of the mucosa without ulcerations, a score of 3, one ulceration without thickening of the colonic wall, a score of 4, two or more of ulcerative or inflammatory sites, a score of 5, two or more ulcerative and inflammatory sites with an extent of more than 1 cm, and for a score of from 6 to 10, an ulcerative or inflammatory site of growing size of from 2 to 6 cm.
A score of Wallace of 3.4 thus indicates an action of 0% and a score of 0, (no lesion) indicates 100% action. […] The action that the active ingredients would be expected to have in combination was calculated according to the Colby formula, and a comparison in the actions was then observed.
The Colby formula is E=X+Y−(XxY)/100, wherein E is the expected degree of action, expressed in %, when the active ingredients 5-ASA and prednisolone PMSB are used in combination. […] It is the degree of action converted from the Wallace score obtained for the A group. […] It is the degree of action converted from the Wallace score obtained for the P group.

Compound | Wallace score (macroscopic lesions, scale 0 to 10) | action percentage in comparison to the Wallace score of untreated control [%]
Nc1ccc(O)c(C(=O)O)c1 [Formulation 5-ASA, 5-aminosalicylic acid] | 1.25 | 63
C[C@]12C=CC(=O)C=C1CC[C@@H]1[C@@H]2[C@@H](O)C[C@@]2(C)[C@H]1CC[C@]2(O)C(=O)COC(=O)c1cccc(S(=O)(=O)O)c1 [PMSB, prednisolone metasulfobenzoate] | 1.83 | 46
